Three compounds from patent US20090076199A1, “RED DYE MIXTURE” (LANXESS DEUTSCHLAND GMBH, priority 2007, published 2009) can be followed below.

Common to all, as to assay type: physicochemical
The nature of series [1]: Maximum solubility of the dyes in methyl benzoate and spectral data of the saturated solutions. Conditions: for Solubility (maximum solubility): in methyl benzoate; for E11 = Extinction (absorbance) of 1 g of this solution in 100 ml of N-methyl-pyrrolidone, 1 cm cell: saturated solution of the dye alone in methyl benzoate. As to the method:
The maximum solubility of the dyes was determined in methyl benzoate.

A short description of series [2]: Mass colouring of polystyrene granules, injection moulding at 240° C., fastness. The following applies: 0.02 g dye per 100 g polystyrene, transparent sheets. As to the method: a) 100 g of polystyrene granules and 0.02 g of the dye from Example 4 are mixed intensely in a drum mixer for 15 min. The dry-stained granules are processed on a screw injection moulding machine at 240° C. This gives transparent bluish red sheets of very good light fastness and migration fastness.

Series [3] can be described thus: Mass colouring of transparent polyethylene terephthalate, twin-screw extruder at 280° C., fastness. Conditions: 0.025 g dye per 100 g transparent polyethylene terephthalate. As to the method: b) 0.025 g of the dye from Example 4 are mixed with 100 g of a transparent polyethylene terephthalate grade and the mixture is homogenized in a twin-screw extruder at 280° C. This gives a transparent bluish red coloration with good light fastness and migration fastness. After subsequent granulation the coloured plastic can be processed in accordance with the typical methods of thermoplastic shaping.

Series [4] can be described thus: Mass colouring of polycarbonate, twin-screw extruder at 290° C., fastness. The following applies: 0.03 g dye per 100 g polycarbonate. As to the method:
c) 100 g of a commercially customary polycarbonate are dry-mixed in granule form with 0.03 g of the dye from Example 4. The granules dusted in this way are homogenized in a twin-screw extruder at 290° C. This gives a transparent bluish red coloration with good light fastness and migration fastness. The coloured polycarbonate is extruded as a strand from the extruder and processed to granules. The granules can be processed by the typical methods of processing thermoplastic compounds.

In the case of `O=C1c2c(Cl)c(Cl)c(Cl)c(Cl)c2C2=Nc3cccc4cccc(c34)N12` [Dye (7), reference compound], in series [1], the “Solubility (maximum solubility)” value came to 0.107 g/100 ml and the “E11 = Extinction (absorbance) of 1 g of this solution in 100 ml of N-methyl-pyrrolidone, 1 cm cell” value came out at 0.17.

`Nc1c(Oc2ccc(C3(c4ccc(Oc5cc(O)c6c(c5N)C(=O)c5ccccc5C6=O)cc4)CCCCC3)cc2)cc(O)c2c1C(=O)c1ccccc1C2=O` [Dye (15)]: in series [1], the “Solubility (maximum solubility)” value was 0.57 g/100 ml and the “E11 = Extinction (absorbance) of 1 g of this solution in 100 ml of N-methyl-pyrrolidone, 1 cm cell” value stood at 1.8.

As for `Nc1c(OCCOc2ccc(OCCOc3cc(O)c4c(c3N)C(=O)c3ccccc3C4=O)cc2)cc(O)c2c1C(=O)c1ccccc1C2=O` [Example 4], the figures for the light fastness result in series [2], in series [3] and in series [4] were “very good”, “good” and “good”, respectively. In addition, the migration fastness result was “very good” in series [2], “good” in series [3] and “good” in series [4].
